Data as given in patent US6872805B2 (Bristol-Myers Squibb Company, priority 2000, dated 2005).
Where two headings read alike, the source gives them in different places.

Legend:
[1] = target: HCV NS3/4A protease complex (Hepatitis C virus genotype 1a, UniProt P27958, C1454S/C1711G); test: Recombinant HCV NS3/4A protease complex FRET peptide assay (strain not stated); assay type: biochemical; details: IC50, NS3/4A protease enzyme assay, strain not stated; activity ranges
[2] = system: HCV replicon in Huh7 cells; test: HCV replicon cell-based assay; parameters: species or system HCV strain 1B; details: Hepatitis C virus, Huh-7, 96 h
Outline: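 Genotype 1b subgenomic replicon Huh7 cells exposed to compound 4 days at 37° C in 4% FCS, 0.5% DMSO medium. EC50 from TaqMan RT-PCR of HCV RNA, normalized to total RNA by RiboGreen; CC50 from alamar Blue fluorescence after 4 h.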

[3] = HCV replicon, Huh7 cells, 4 days, activity ranges, read-out: EC50

HCV NS3/4A protease complex, sequence (P27958 1027-1711, stated change not applied): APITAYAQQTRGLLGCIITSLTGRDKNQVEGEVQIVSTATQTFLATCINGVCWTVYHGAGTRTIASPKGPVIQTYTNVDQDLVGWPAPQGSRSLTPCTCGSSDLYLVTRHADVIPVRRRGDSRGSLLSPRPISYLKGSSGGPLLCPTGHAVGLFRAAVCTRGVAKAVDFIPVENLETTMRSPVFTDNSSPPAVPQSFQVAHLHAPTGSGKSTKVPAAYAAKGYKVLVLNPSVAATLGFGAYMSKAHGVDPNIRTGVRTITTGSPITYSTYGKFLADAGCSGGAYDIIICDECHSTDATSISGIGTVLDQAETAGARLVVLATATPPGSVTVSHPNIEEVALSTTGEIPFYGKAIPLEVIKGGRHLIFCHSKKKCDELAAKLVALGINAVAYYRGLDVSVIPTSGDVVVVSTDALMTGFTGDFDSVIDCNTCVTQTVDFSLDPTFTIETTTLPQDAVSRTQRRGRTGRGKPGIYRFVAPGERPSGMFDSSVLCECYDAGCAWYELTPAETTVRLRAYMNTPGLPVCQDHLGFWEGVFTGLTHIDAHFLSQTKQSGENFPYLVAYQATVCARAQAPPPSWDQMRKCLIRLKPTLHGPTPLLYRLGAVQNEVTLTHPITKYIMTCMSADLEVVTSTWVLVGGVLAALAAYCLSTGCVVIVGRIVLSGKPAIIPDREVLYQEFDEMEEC
HCV NS3/4A protease complex, sequence (P27958 1027-1711, stated change not applied): as above

SMILES	IC50 [1] [nM]	EC50 [2, 3] [nM]	EC50 [2] [nM]
C=CC1C[C@]1(NC(=O)[C@@H]1C[C@@H](Oc2cc(-c3ccccc3)nc3cc(OC)ccc23)CN1C(=O)[C@@H](NC(=O)N(CCC(F)(F)F)CC1CC1)C(C)(C)C)C(=O)NS(=O)(=O)C1CC1 (stereo in doubt) [Compound 20, 1-{2-[3-Cyclopropylmethyl-3-(3,3,3-trifluoropropyl)-ureido]-3,3-dimethylbutyryl}-4-(7-methoxy-2-phenyl-quinolin-4-yloxy)-pyrrolidine-2-carboxylic acid (1-cyclopropanesulfonylaminocarbonyl-2-vinyl-cyclopropyl)amide]	< 50	< 500	–
C=CC1C[C@]1(NC(=O)[C@@H]1C[C@@H](Oc2cc(-c3ccccc3)nc3cc(OC)ccc23)CN1C(=O)[C@@H](NC(=O)OC(C)(C)C)C(C)(C)C)C(=O)NS(=O)(=O)C1CCC1 (stereo in doubt) [Compound 11, {1-[2-(1-Cyclobutanesulfonylaminocarbonyl-2-vinylcyclo-propylcarbamoyl)-4-(7-methoxy-2-phenylquinolin-4-yloxy)-pyrrolidine-1-carbonyl]-2,2-dimethylpropyl}carbamic acid tert-butyl ester]	< 50	< 50	–
C=C[C@@H]1C[C@]1(NC(=O)C1CC(Oc2cc(-c3ccccc3)nc3cc(OC)ccc23)CN1C(=O)[C@@H](NC(=O)OCCF)C(C)(C)C)C(=O)NS(=O)(=O)C1CC1 (stereo partly drawn) [Compound 122, {1S-[2S-(1R-cyclopropanesulfonylaminocarbonyl-2S-vinyl-cyclopropylcarbamoyl)-4R-(7-methoxy-2-phenyl-quinolin-4-yloxy)-pyrrolidine-1-carbonyl]-2,2-dimethyl-propyl}-carbamic acid 2-fluoroethyl ester]	< 50	< 50	–
C=C[C@@H]1C[C@]1(NC(=O)C1C[C@@H](Oc2cc(-c3ccccc3)nc3cc(OC)ccc23)CN1C(=O)[C@@H](NC(=O)OCC(C)(C)C)C(C)(C)C)C(=O)NS(=O)(=O)C1CC1 (stereo partly drawn) [Compound 125, {1S-[2S-(1R-cyclopropanesulfonylaminocarbonyl-2S-vinyl-cyclopropylcarbamoyl)-4R-(7-methoxy-2-phenyl-quinolin-4-yloxy)-pyrrolidine-1-carbonyl]-2,2-dimethyl-propyl}-carbamic acid 2,2-dimethyl-propyl ester]	< 50	< 50	–
C=CC1C[C@]1(NC(=O)[C@@H]1C[C@@H](Oc2cc(-c3ccccc3)nc3cc(OC)ccc23)CN1C(=O)[C@@H](NC(=O)OC(C)(C)C)C1CCCC1)C(=O)NS(=O)(=O)C1CCC1 (stereo partly drawn) [Compound 72]	< 500	< 500	–
C=CC1C[C@]1(NC(=O)[C@@H]1C[C@@H](Oc2cc(-c3ccccc3)nc3cc(OC)ccc23)CN1C(=O)[C@@H](N)C(C)(C)C)C(=O)NS(=O)(=O)C1CC1 (stereo partly drawn) [Compound 28]	< 50	< 5000	–
C=CC1C[C@]1(NC(=O)[C@@H]1C[C@@H](Oc2cc(-c3ccccc3)nc3cc(OC)ccc23)CN1C(=O)[C@H](CC(C)C)NC(=O)OC(C)(C)C)C(=O)NS(=O)(=O)C1CC1 (stereo partly drawn) [Compound 33]	< 50	< 50	–
C=C[C@@H]1C[C@]1(NC(=O)C1C[C@@H](Oc2cc(-c3ccccc3)nc3cc(OC)ccc23)CN1C(=O)[C@@H](NC(=O)C(C)(C)C)C(C)(C)C)C(=O)NS(=O)(=O)C1CC1 (stereo partly drawn) [Compound 101, 1-[2S-(2,2-Dimethylpropionylamino)-3,3-dimethyl-butyryl]-4R-(7-methoxy-2-phenyl-quinolin-4-yloxy)-pyrrolidine-2S-carboxylic acid (1R-cyclo-propanesulfonylaminocarbonyl-2S-vinylcyclopropyl)-amide]	< 50	< 500	–
C=CC1C[C@]1(NC(=O)[C@@H]1C[C@@H](Oc2cc(-c3ccccc3)nc3cc(OC)ccc23)CN1C(=O)[C@H](CC(C)C)NC(=O)OC(C)(C)C)C(=O)NS(=O)(=O)C(C)C (stereo partly drawn) [Compound 34]	< 50	< 500	–
C=CC1C[C@]1(NC(=O)[C@@H]1C[C@@H](Oc2cc(-c3ccccc3)nc3cc(OC)ccc23)CN1C(=O)[C@@H](NC(=O)OC(C)(C)C)C(C)(C)C)C(=O)NS(=O)(=O)CC (stereo partly drawn) [Compound 25]	< 50	< 500	–
C=CC1CC1(NC(=O)[C@@H]1C[C@@H](Oc2cc(-c3ccccc3)nc3cc(OC)ccc23)CN1C(=O)[C@@H](NC(=O)OC(C)(C)C)C(C)(C)C)C(=O)NS(=O)(=O)C1CC1 (stereo partly drawn) [Compound 91]	< 50	< 50	–
C=C[C@@H]1C[C@]1(NC(=O)C1C[C@@H](Oc2cc(-c3ccccc3)nc3cc(OC)ccc23)CN1C(=O)[C@@H](NC(=O)CF)C(C)(C)C)C(=O)NS(=O)(=O)C1CC1 (stereo partly drawn) [Compound 112, 1-[2S-(2-Fluoro-acetylamino)-3,3-dimethyl-butyryl]-4R-(7-methoxy-2-phenyl-quinolin-4-yloxy)-pyrrolidine-2S-carboxylic acid (1R-cyclopropanesulfonylaminocarbonyl-2S-vinyl-cyclopropyl)-amide]	< 50	–	< 50
C=C[C@@H]1C[C@]1(NC(=O)C1CC(Oc2cc(-c3ccccc3)nc3cc(OC)ccc23)CN1C(=O)[C@@H](NS(=O)(=O)C1CC1)C(C)(C)C)C(=O)NS(=O)(=O)C1CC1 (stereo partly drawn) [Compound 118, 1-(2S-cyclopropanesulfonylamino-3,3-dimethyl-butyryl)-4R-(7-methoxy-2-phenyl-quinolin-4-yloxy)-pyrrolidine-2S-carboxylic acid (1R-cyclopropanesulfonylamino-carbonyl-2S-vinyl-cyclopropyl)-amide]	< 50	< 500	–
C=C[C@@H]1C[C@]1(NC(=O)C1CC(Oc2cc(-c3ccccc3)nc3cc(OC)ccc23)CN1C(=O)[C@@H](NC(=O)CCl)C(C)(C)C)C(=O)NS(=O)(=O)C1CC1 (stereo partly drawn) [Compound 120, 1-[2S-(2-chloro-acetylamino)-3,3-dimethyl-butyryl]-4R-(7-methoxy-2-phenyl-quinolin-4-yloxy)-pyrrolidine-2S-carboxylic acid (1R-cyclopropanesulfonylaminocarbonyl-2S-vinylcyclopropyl)-amide]	< 50	< 50	–
C=C[C@@H]1C[C@]1(NC(=O)C1C[C@@H](Oc2cc(-c3ccccc3)nc3cc(OC)ccc23)CN1C(=O)[C@@H](NC(=O)C(F)(F)F)C(C)(C)C)C(=O)NS(=O)(=O)C1CC1 (stereo partly drawn) [Compound 99, 1-[3,3-dimethyl-2S-(2,2,2-trifluoro-acetylamino)-butyryl]-4R-(7-methoxy-2-phenylquinolin-4-yloxy)pyrrolidine-2S-carboxylic acid(1R-cyclopropanesulfonylaminocarbonyl-2S-vinylcyclopropyl)amide]	< 50	< 500	–
